Test results published in ChEMBL document CHEMBL3352746, “Synthesis and anticancer activity of quinopimaric and maleopimaric acids’ derivatives” (Bioorg Med Chem, 2014).
Active and inactive are the calls of the source. The rule behind the calls is not given here.

Legend:
Type in all cases: functional
[1] = (§1) Cytotoxicity against human NCI60 cells assessed as cell growth at 10 uM; conditions: read-out: Activity
NCI60 = experiment: as §1
T47D = experiment: Cytotoxicity against human T47D cells assessed as cell growth at 10 uM; conditions: read-out: Activity
RPMI-8226 = experiment: Cytotoxicity against human RPMI8226 cells assessed as cell growth at 10 uM; conditions: read-out: Activity
HCC 2998 = experiment: Cytotoxicity against human HCC2998 cells assessed as cell growth at 10 uM; conditions: read-out: Activity
SR = experiment: Cytotoxicity against human SR cells assessed as cell growth at 10 uM; conditions: read-out: Activity
TK-10 = experiment: Cytotoxicity against human TK10 cells assessed as cell growth at 10 uM; conditions: read-out: Activity
[2] = Cytotoxicity against human HL60 cells assessed as cell growth at 10 uM; conditions: HL-60, read-out: Activity

| SMILES | growth at 10 µM [1] [%] | also measured |
| --- | --- | --- |
| COC(=O)[C@]1(C)CCC[C@]2(C)[C@H]3C[C@H]4C(C(C)C)=C[C@]3(CC[C@H]21)[C@@H]1c2[nH]c3ccccc3c2CC(=O)[C@@H]14 | > 32 |  |
| COC(=O)C(CCSC)NC(=O)[C@]1(C)CCC[C@]2(C)[C@H]3C[C@H]4C(C(C)C)=C[C@]3(CC[C@H]21)[C@@H]1C(=O)CC[C@H](OC(=O)CCC(=O)O)[C@@H]14 (stereo not given in full) | > 32 |  |
| COC(=O)CCNC(=O)[C@]1(C)CCC[C@]2(C)[C@H]3C[C@H]4C(C(C)C)=C[C@]3(CC[C@H]21)[C@@H]1C(=O)CC[C@H](O)[C@@H]14 | > 32 |  |
| COC(=O)[C@]1(C)CCC[C@]2(C)[C@H]3C[C@H]4C(C(C)C)=C[C@]3(CC[C@H]21)[C@@H]1c2[nH]c3ccccc3c2-c2c([nH]c3ccccc23)[C@@H]14 | > 32 |  |
| COC(=O)[C@]1(C)CCC[C@]2(C)[C@H]3C[C@@H]4[C@H]5[C@@H]6CC/C(=N\O)[C@H]5[C@@]3(CC[C@H]21)CC4(C(C)C)O6 | > 32 |  |
| COC(=O)[C@]1(C)CCC[C@]2(C)[C@H]3C[C@@H]4[C@H]5[C@@H]6Cc7cnn(-c8ccccc8)c7[C@H]5[C@@]3(CC[C@H]21)CC4(C(C)C)O6 | > 32 |  |
| COC(=O)[C@]1(C)CCC[C@]2(C)[C@H]3C[C@H]4C(C(C)C)=C[C@]3(CC[C@H]21)[C@@H]1/C(=N/O)CCC2(OCCO2)[C@@H]14 |  | Activity (NCI60): Active; growth at 10 µM (T47D): 30.7%; growth at 10 µM (RPMI-8226): 3.94%; growth at 10 µM (HCC 2998): -9.91% |
| COC(=O)[C@]1(C)CCC[C@@]2(C)[C@H]1CC[C@]13C=C(C(C)C)[C@H](C[C@H]21)C1=C3C(=O)C=CC1=O |  | Activity (NCI60): Active; growth at 10 µM (SR): 15.6% |
| COC(=O)[C@]1(C)CCC[C@]2(C)[C@H]3C[C@@H]4[C@H]5[C@@H]6Cc7[nH]c(=S)[nH]c7[C@H]5[C@@]3(CC[C@H]21)CC4(C(C)C)O6 | > 32 |  |
| COC(=O)[C@]1(C)CCC[C@]2(C)[C@H]3C[C@H]4C(C(C)C)=C[C@]3(CC[C@H]21)[C@@H]1NC(=O)CCC2(OCCO2)[C@@H]14 | > 32 |  |
| COC(=O)[C@]1(C)CCC[C@]2(C)[C@H]3C[C@H]4C(C(C)C)=C[C@]3(CC[C@H]21)[C@@H]1NC(=O)CC[C@H](O)[C@@H]14 | > 32 |  |
| COC(=O)[C@]1(C)CCC[C@]2(C)[C@H]3C[C@H]4C5C[C@]3(CC[C@H]21)[C@@H]1/C(=N/O)CC[C@H](OC5(C)C)[C@@H]14 | > 32 |  |
| COC(=O)[C@]1(C)CCC[C@]2(C)[C@H]3C[C@@H]4[C@H]5[C@@H]6Cc7cn[nH]c7[C@H]5[C@@]3(CC[C@H]21)CC4(C(C)C)O6 | > 32 |  |
| CC(C)C1=C[C@@]23CC[C@@H]4[C@](C)(CCC[C@@]4(C)C(=O)O)[C@H]2C[C@@H]1[C@H]1C(=O)CCC(=O)[C@H]13 |  | Activity (NCI60): Active; growth at 10 µM (TK-10): 28.4% |
| COC(=O)[C@]1(C)CCC[C@]2(C)[C@H]3C[C@@H]4[C@H]5[C@@H]6Cc7c([nH]c8ccccc78)[C@H]5[C@@]3(CC[C@H]21)CC4(C(C)C)O6 | > 32 |  |
| COC(=O)[C@]1(C)CCC[C@]2(C)[C@H]3C[C@H]4C(C(C)C)=C[C@]3(CC[C@H]21)[C@@H]1C(=O)CCC2(OCCO2)[C@@H]14 |  | Activity (NCI60): Active; growth at 10 µM [2]: 28.7%; growth at 10 µM (SR): 31.2% |
| COC(=O)CCNC(=O)[C@]1(C)CCC[C@]2(C)[C@H]3C[C@H]4C(C(C)C)=C[C@]3(CC[C@H]21)[C@@H]1C(=O)CCC(=O)[C@@H]14 | > 32 |  |
| CC(C)C1=C[C@]23CC[C@@H]4[C@](C)(CCC[C@@]4(C)C(=O)O)[C@H]2C[C@H]1[C@H]1C(=O)OC(=O)[C@H]13 | > 32 |  |
| COC(=O)[C@]1(C)CCC[C@]2(C)[C@H]3C[C@@H]4[C@H]5[C@@H]6CCC(=O)[C@H]5[C@@]3(CC[C@H]21)CC4(C(C)C)O6 | > 32 |  |
| COC(=O)[C@]1(C)CCC[C@]2(C)[C@H]3C[C@H]4C(C(C)C)=C[C@]3(CC[C@H]21)[C@@H]1/C(=N/O)CC[C@H](O)[C@@H]14 | > 32 |  |
| COC(=O)[C@]1(C)CCC[C@]2(C)[C@H]3C[C@H]4C5C[C@]3(CC[C@H]21)[C@@H]1C(=O)CC[C@H](OC5(C)C)[C@@H]14 | > 32 |  |
| COC(=O)[C@]1(C)CCC[C@]2(C)[C@H]3C[C@H]4C(C(C)C)=C[C@]3(CC[C@H]21)[C@@H]1C(=O)[C@H]2O[C@H]2C(=O)[C@@H]14 |  | Activity (NCI60): Active; growth at 10 µM (SR): 8.07% |
